The target in assay [1] is T1, Genome polyprotein [1066-1250,R1182K]/[1394-1440,K1405R,D1408E] (dengue virus type 2, UniProt P14340+P27914, D1408E/K1405R/R1182K).
T1 construct: 1066-1250; 1394-1440
Description: Enzyme Inhibition Assay. To be noted: pH 7.5; 37 °C. Here is the method:
(§1) Inhibitors were assayed in a 96-well plate format. […] The reaction was initiated by the addition of substrate Bz-nKRR-AMC. Reaction progress was monitored continuously by following the increase in fluorescence on a Tecan Safire2 plate reader. IC50 values of inhibitors were derived by fitting the calculated initial velocities to a nonlinear regression curve using GraphPad Prism software. Each point of the IC50 curve was measured in duplicate during a single experiment.

For assay [2], the target named is T2, Genome polyprotein [1394-1440]/[1476-1660,T1585M] (dengue virus type 3, UniProt P27915+Q6YMS4, T1585M).
T2 construct: 1394-1440; 1476-1660
The assay can be described thus: Enzyme Inhibition Assay. As to the method: as §1

Assay [3] concerns the target T3, Genome polyprotein [1393-1439,E1407V]/[1476-1660,R1508K,A1566M] (dengue virus type 1, UniProt P17763+P33478, A1566M/E1407V/R1508K).
T3 construct: 1393-1439; 1476-1660
Description: Enzyme Inhibition Assay. To be noted: pH 7.5; 37 °C. As to the method: as §1

For assay [4], the target named is T4, Genome polyprotein [1394-1440]/[1476-1660] (dengue virus type 4, UniProt Q58HT7).
T4 construct: 1394-1440; 1476-1660
Description: Enzyme Inhibition Assay. As to the method: as §1

The target of assay [5] is T1, Genome polyprotein [1066-1250,R1182K]/[1394-1440,K1405R,D1408E]. Description: Enzyme Inhibition Assay (IC50) and Fluorescence Quench Assay (KD). To be noted: pH 7.5; 37 °C. As to the method: (§2) Inhibitors were assayed in a 96-well plate format. […] The reaction was initiated by the addition of substrate Bz-nKRR-AMC. Reaction progress was monitored continuously by following the increase in fluorescence on a Tecan Safire2 plate reader. IC50 values of inhibitors were derived by fitting the calculated initial velocities to a nonlinear regression curve using GraphPad Prism software. Each point of the IC50 curve was measured in duplicate during a single experiment. Compounds were tested for binding (KD) using fluorescence quench assay. Two protein solutions were prepared (2-5 uM protein with and without 40 uM compound) and were mixed in a microplate to obtain 12 different compound concentrations ranging from 0 to 40 uM. Then each dilution comprising 90 ul was transferred to a UV-Star 96-well microplate. […] Binding curves were analyzed according to the two-state model describing the formation of a 1:1 complex. Kd values were obtained from curve-fit of binding isotherms.

The target of assay [6] is T5, Genome polyprotein [1424-1463]/[1502-1685] (West Nile virus, UniProt P06935).
T5 construct: 1424-1463; 1502-1685
T5 sequence (P06935 whole entry) 1: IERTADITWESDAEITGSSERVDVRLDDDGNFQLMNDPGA
T5 sequence (P06935 whole entry) 2: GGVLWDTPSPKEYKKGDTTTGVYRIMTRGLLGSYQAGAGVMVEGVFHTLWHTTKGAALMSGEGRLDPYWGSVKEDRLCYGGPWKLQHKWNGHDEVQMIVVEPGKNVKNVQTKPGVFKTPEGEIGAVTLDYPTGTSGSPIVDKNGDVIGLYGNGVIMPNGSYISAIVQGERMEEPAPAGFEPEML
The description is as above. To be noted: pH 7.5; 37 °C. As to the method:
as §2

The target in assay [7] is T5, Genome polyprotein [1424-1463]/[1502-1685]. Description: Enzyme Inhibition Assay. The settings on record: pH 7.5; 37 °C. As to the method: as §1

Structures are written as SMILES. Non-standard residues stand in square brackets, D forms with d. Residues, ends and D or L forms follow the SMILES beside them. *: point of attachment. Nle = CCCC[C@H](N)C(=O)O; Bz = O=C(c1ccccc1)* Some results are limits rather than exact numbers.

T3 sequence (P17763 1476-1660, looked up, stated change not applied): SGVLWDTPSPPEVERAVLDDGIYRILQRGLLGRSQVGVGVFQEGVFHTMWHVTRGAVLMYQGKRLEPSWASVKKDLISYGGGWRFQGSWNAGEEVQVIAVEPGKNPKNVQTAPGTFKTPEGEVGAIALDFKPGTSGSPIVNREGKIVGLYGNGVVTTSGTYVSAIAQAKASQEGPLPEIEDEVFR
T3 sequence (P33478 1393-1439, looked up, stated change not applied): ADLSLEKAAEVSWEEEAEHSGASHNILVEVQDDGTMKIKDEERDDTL
T4 sequence (Q58HT7 1394-1440): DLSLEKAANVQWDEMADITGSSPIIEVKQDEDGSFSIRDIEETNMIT
T4 sequence (Q58HT7 1476-1660): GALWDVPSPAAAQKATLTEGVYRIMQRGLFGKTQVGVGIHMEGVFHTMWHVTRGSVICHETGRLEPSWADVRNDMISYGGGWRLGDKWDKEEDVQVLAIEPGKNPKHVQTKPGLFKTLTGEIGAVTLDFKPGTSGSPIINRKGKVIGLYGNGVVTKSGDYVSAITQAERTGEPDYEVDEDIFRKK
T2 sequence (P27915 1394-1440, stated change not applied): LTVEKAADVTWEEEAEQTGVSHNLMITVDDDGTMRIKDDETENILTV
T2 sequence (Q6YMS4 1476-1660, looked up, stated change not applied): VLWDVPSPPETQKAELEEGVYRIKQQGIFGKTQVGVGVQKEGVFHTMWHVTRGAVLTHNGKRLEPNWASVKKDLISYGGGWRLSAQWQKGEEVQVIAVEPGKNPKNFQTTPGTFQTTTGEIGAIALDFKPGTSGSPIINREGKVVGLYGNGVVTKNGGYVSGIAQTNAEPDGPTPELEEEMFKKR
T1 sequence (P14340 1394-1440, looked up, stated change not applied): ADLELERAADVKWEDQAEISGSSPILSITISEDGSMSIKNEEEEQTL
T1 sequence (P27914 1066-1250, looked up, stated change not applied): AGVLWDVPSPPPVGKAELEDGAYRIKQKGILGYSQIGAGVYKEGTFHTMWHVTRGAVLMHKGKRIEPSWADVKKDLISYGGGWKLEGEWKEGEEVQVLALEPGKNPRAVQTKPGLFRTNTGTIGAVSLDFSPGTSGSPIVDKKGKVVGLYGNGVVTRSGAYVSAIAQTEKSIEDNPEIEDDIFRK

As a reminder, the IC50 is the midpoint of a concentration-inhibition curve. A lower IC50 goes with greater potency in that assay. Take `CCCC[C@H](NC(=O)c1ccccc1)C(=O)N[C@@H](CCCCN)C(=O)N[C@@H](CCCNC(=N)N)C(=O)N[C@H](C=O)CCCNC(=N)N` [Bz-Nle-Lys-Arg-Arg-H] (Bz-[Nle]KRR-aldehyde): the IC50 in assay [1] amounted to 8.9 µM; in assay [2], 7.9 µM; in assay [3], 11.8 µM; in assay [4] it was 1.4 µM.

A word on the Kd: it is the concentration at which binding is half-saturated. For the compound `CC1CNC(c2ccc(Nc3nnc(Nc4ccc(C5=NC(C)CN5)cc4)c4ccccc34)cc2)=N1` (configuration not stated) [phthalazine-based compound, 1], the IC50 in assay [5] stood at 6 µM; in assay [2], 17.5 µM; in assay [3], 36.4 µM; in assay [4] it was 32.8 µM. The dissociation constant (Kd) in assay [5] is 7.2 µM; in assay [6], 21 µM.

Consider `c1ccc(-c2ccc(Nc3nnc(Nc4ccc(C5=NCCN5)cc4)c4ccccc34)cc2)cc1` [phthalazine-based compound, 2], for which the half-inhibitory concentration (IC50) in assay [5] was 2.3 µM; in assay [6], 3.6 µM; in assay [2], 1.6 µM; in assay [3] it was 2 µM; in assay [4], 2 µM.

In the case of `c1ccc2c(Nc3ccc(C4=NC5CCCCC5N4)cc3)nnc(Nc3ccc(C4=NC5CCCCC5N4)cc3)c2c1` (configuration not stated) [phthalazine-based compound, 3], the IC50 in assay [5] stood at 1.1 µM; in assay [6], 22 µM; in assay [2] it was 8.5 µM; in assay [3] it was 10.7 µM; in assay [4], 13.6 µM. In addition, the dissociation constant Kd in assay [5] amounted to 7.7 µM; in assay [6] it was 90 µM.

In the case of `c1ccc2c(Nc3ccc4c(c3)CNCC4)nnc(Nc3ccc(C4=NCCN4)cc3)c2c1` [phthalazine-based compound, 4], the IC50 in assay [5] is 27.4 µM; in assay [2] it was 100 µM; in assay [3], 233 µM; in assay [4], 64.8 µM. Moreover, the Kd in assay [5] was 22.9 µM; in assay [6], 4.6 µM.

Regarding `NCc1ccc(Nc2nnc(Nc3ccc(C4=NCCN4)cc3)c3ccccc23)cc1` [phthalazine-based compound, 5], the IC50 came out at 5.8 µM in assay [5], 8.7 µM in assay [2], 12.3 µM in assay [3] and 8.2 µM in assay [4]. Further, the Kd came to 18.6 µM in assay [5] and 100 µM in assay [6].

In the case of `c1ccc2c(Nc3ccc4c(c3)CCNC4)nnc(Nc3ccc(C4=NCCN4)cc3)c2c1` [phthalazine-based compound, 6], the IC50 in assay [5] was determined as 55 µM; in assay [6], 6.2 µM; in assay [2], 86 µM; in assay [3], 170 µM; in assay [4] it was 43 µM. Also, the figures for the Kd in assay [5] and in assay [6] were 54 µM and 7 µM, respectively.

As for `COC(=O)c1ccc(-c2ccc(Nc3nnc(Nc4ccc(C5=NCCN5)cc4)c4ccccc34)cc2)cc1` [phthalazine-based compound, 7], the half-inhibitory concentration (IC50) in assay [5] was 1.6 µM; in assay [6], 2.2 µM; in assay [2], 1 µM; in assay [3], 2.72 µM; in assay [4], 1.3 µM.

As for `c1ccc2c(Nc3ccc(C4=NCCN4)cc3)nnc(Nc3ccc(C4=NCCN4)cc3)c2c1` [phthalazine-based compound, 8], the half-inhibitory concentration (IC50) was 10.2 µM in assay [5]; 27.9 µM in assay [2]; 16 µM in assay [7]; 21.4 µM in assay [3]; 19.8 µM in assay [4]. This compound also displayed a dissociation constant (Kd) in assay [5] of 16.3 µM.

As to `Nc1ccc2c(Nc3ccc(C4=NCCN4)cc3)nnc(Nc3ccc(C4=NCCN4)cc3)c2c1` [phthalazine-based compound, 9], the half-maximal inhibitory concentration (IC50) in assay [5], in assay [2], in assay [3] and in assay [4] was more than 100 µM each time. Also, the affinity in assay [5], expressed as Kd, was 100 µM.
